Laboratory results as given in patent US9751919B2, “Antimicrobial compositions comprising a hyaluronic acid binding peptide and a β-lactam antibiotic” (priority 2012, dated 2017).
“And” between values parts separate entries of the source, which are not always exact repeats. Equal entries are not always repeated.

Tests used:
Test in all cases: Checkerboard assay (FIC index)
MRSE = assay type: cell-based, Staphylococcus epidermidis; conditions: antibiotic combined with PEP35
Experimental: (§1) The checkerboard assays were carried out as described by Eliopoulos and Moellering (Chapter 9) in Antibiotic in Laboratory Medicine, Lorian Ed. 1996 as well as Bonapace et al. Diagnostic Microbiology and Infectious Diseases 2002; 44:363-366 and Bonapace et al. Diagnostic Microbiology and Infectious Diseases 2000; 38:43-50. In brief, checkerboard assays were performed in 96 well microtitre trays using an 8-by-8 well configuration. […] 96-well custom designed microtitre plates contained 100 ul/well of cation adjusted Mueller-Hinton broth (eg. for Enterobacteriaceae) with or without lysed horse blood (2-5% V/V) [eg. for S. pneumoniae] and were inoculated to achieve a final concentration of approximately 5×10^5 CFU/ml and incubated in ambient air for 24 hours prior to reading. Colony counts were performed periodically to confirm inocula. Quality control was performed every two weeks using a variety of ATCC QC organisms including; S. pneumoniae 49619, S. aureus 29213, E. faecalis 29212, E. coli 25922 and P. aeruginosa 27853. For all antimicrobials as well as PEP35, CLSI criteria was used.
(§2) The fractional inhibitory concentration index (FIC index) was used to interpret synergy, antagonism or additivity/indifference. FIC index=FIC of drug A+FIC of drug B where:
(§3) The FIC of drug A and drug B is calculated as follows, FIC drug A=MIC of drug A in combination/MIC of drug A alone and FIC of drug B=MIC of drug B in combination/MIC of drug B alone. Synergy is defined as FIC index ≦0.5, additivity/indifference FIC >0.5-4 and antagonism FIC index >4.
Antimicrobials used included PEP35, cefazolin, ceftriaxone, vancomycin, linezolid, tigecycline and daptomycin versus Gram-positive cocci and PEP35, gentamicin, levofloxacin, piperacillin/tazobactam, meropenem and colistin (Polymyxin E) versus Gram-negative bacilli. These agents were obtained as laboratory grade powders from their respective manufacturers. Stock solutions were prepared and dilutions made as described by the Clinical Laboratory Standards Institute (2005 CLSI).
Organisms included Gram-positive cocci (2 strains of each): Methicillin-susceptible Staphylococcus aureus (MSSA), community-associated (CA) and healthcare-associated (HA) methicillin-resistant Staphylococcus aureus (MRSA), vancomycin-intermediate Staphylococcus aureus (VISA), vancomycin-resistant Staphylococcus aureus (VRSA), methicillin-resistant Staphylococcus epidermidis (MRSE), Streptococcus pyogenes, Streptococcus agalactiae, Streptococcus pneumoniae, Enterococcus faecalis, Enterococcus faecium and vancomycin-resistant enterococcus (VRE). Gram-negative bacilli tested (2 strains of each) included: E. coli, Pseudomonas aeruginosa, Klebsiella pneumoniae, K. oxytoca, Enterobacter cloacae, P. mirabilis and Stenotrophomonas maltophilia. MIC testing, following two subcultures from frozen stock were determined by the CLSI 2005 approved broth microdilution method.

CA-MRSA = assay type: cell-based, Staphylococcus aureus; conditions: antibiotic combined with PEP35 (added together)
Experimental: (§4) Checkerboard assays were carried out as described by Bonapace et al.
as §1, with “Diagnostic” for “The checkerboard assays were carried out as described by Eliopoulos and Moellering (Chapter 9) in Antibiotic in Laboratory Medicine, Lorian Ed. 1996 as well as Bonapace et al. Diagnostic”, “2002; 44:363-366.” for “2002; 44:363-366 and Bonapace et al. Diagnostic Microbiology and Infectious Diseases 2000; 38:43-50.”, “27853. […] All peptides were assessed for synergy with β-lactams and vancomycin.” for “27853.”, “as the peptides,” for “as PEP35,”, “criteria were” for “criteria was”
as §2
(§5) The FIC of drug A and drug B was calculated as follows, FIC drug A=MIC of drug A in combination/MIC of drug A alone and FIC of drug B=MIC of drug B in combination/MIC of drug B alone. Synergy was defined as FIC index ≦0.5, additivity/indifference defined as a FIC between 0.5 and 4 and antagonism defined as an FIC index >4.
(§6) The fractional inhibitory concentration index (FIC index) was used to interpret synergy, antagonism or additivity/indifference. FIC index=FIC of drug A+FIC of drug B where the FIC of drug A and drug B was calculated as follows, FIC drug A=MIC of drug A in combination/MIC of drug A alone and FIC of drug B=MIC of drug B in combination/MIC of drug B alone. Synergy was defined as FIC index ≦0.5, additivity/indifference defined as an FIC of between 0.5 and 4 and antagonism defined as an FIC index >4.
as §1, with “27853.” for “27853. For all antimicrobials as well as PEP35, CLSI criteria was used.”
as §3
(§7) These agents were obtained as laboratory grade powders from their respective manufacturers. Stock solutions were prepared and dilutions made as described by the Clinical Laboratory Standards Institute (2005 CLSI).

HA-MRSA = assay type: cell-based, Staphylococcus aureus; conditions: antibiotic combined with PEP35 (added together)
Experimental: as §4
as §1, with “Diagnostic” for “The checkerboard assays were carried out as described by Eliopoulos and Moellering (Chapter 9) in Antibiotic in Laboratory Medicine, Lorian Ed. 1996 as well as Bonapace et al. Diagnostic”, “2002; 44:363-366.” for “2002; 44:363-366 and Bonapace et al. Diagnostic Microbiology and Infectious Diseases 2000; 38:43-50.”, “27853. […] All peptides were assessed for synergy with β-lactams and vancomycin.” for “27853.”, “as the peptides,” for “as PEP35,”, “criteria were” for “criteria was”
as §2, §5, §6
as §1, with “27853.” for “27853. For all antimicrobials as well as PEP35, CLSI criteria was used.”
as §3, §7

VRSA = assay type: cell-based, Staphylococcus aureus; conditions: antibiotic combined with PEP35 (added together)
Experimental: as §4
as §1, with “Diagnostic” for “The checkerboard assays were carried out as described by Eliopoulos and Moellering (Chapter 9) in Antibiotic in Laboratory Medicine, Lorian Ed. 1996 as well as Bonapace et al. Diagnostic”, “2002; 44:363-366.” for “2002; 44:363-366 and Bonapace et al. Diagnostic Microbiology and Infectious Diseases 2000; 38:43-50.”, “27853. […] All peptides were assessed for synergy with β-lactams and vancomycin.” for “27853.”, “as the peptides,” for “as PEP35,”, “criteria were” for “criteria was”
as §2, §5, §6
as §1, with “27853.” for “27853. For all antimicrobials as well as PEP35, CLSI criteria was used.”
as §3, §7

CN[C@H](CC(C)C)C(=O)N[C@H]1C(=O)N[C@@H](CC(N)=O)C(=O)N[C@H]2C(=O)N[C@H]3C(=O)N[C@H](C(=O)N[C@H](C(=O)O)c4cc(O)cc(O)c4-c4cc3ccc4O)[C@H](O)c3ccc(c(Cl)c3)Oc3cc2cc(c3O[C@@H]2O[C@H](CO)[C@@H](O)[C@H](O)[C@H]2O[C@H]2C[C@](C)(N)[C@H](O)[C@H](C)O2)Oc2ccc(cc2Cl)[C@H]1O [Vancomycin]
Avg ΣFIC (range) (MRSE; MRSE 79617): 0.99 (0.62-1.25) | Avg ΣFIC (range) (MRSE; MRSE 83100): 0.60 (0.31.12) rpt | Avg ΣFIC (range) (CA-MRSA; CA-MRSA 69615 (USA400)): 1.19 (1.03-1.5) | Avg ΣFIC (range) (CA-MRSA; CA-MRSA 70857 (USA400)): 1.05 (0.75-1.25) | Avg ΣFIC (range) (HA-MRSA; HA-MRSA 70798 (USA100/800)): 1.19 (1.03-1.5) | Avg ΣFIC (range) (HA-MRSA; HA-MRSA 77090 (USA100/800)): 0.95 (0.56-1.25) | Avg ΣFIC (range) (VRSA; VRSA 105): 0.3 (0.15-0.53) and 0.49 (0.24-1.06) | Avg ΣFIC (range) (VRSA; VRSA 106): 0.27 (0.09-0.53) and 0.40 (0.15-1.06)
